Measured values as given in patent US20250360167A1 (Keryx Biopharmaceuticals, Inc., priority 2013, published 2025).

System: ferritin
Test: Phase 3 trial (Example 1): ferritin
Format: in vivo, human
Set-up: Ferritin, Mean / Ferritin, Median / Ferritin, Change from Baseline, Mean / Ferritin, Change from Baseline, Median / Ferritin, LS Mean: unit not given here
Settings: for Ferritin, Mean / Ferritin, Median / Ferritin, LS Mean / Ferritin, Change from Baseline, Mean / Ferritin, Change from Baseline, Median / Ferritin, Treatment Differences, LS Mean (KRX-0502) − LS Mean (control), (SE): Table 15
Excerpt: Iron studies including serum iron, ferritin, TSAT, and total iron-binding capacity were done at Screening (Visit 0); at the Randomization Visit (Visit 4); at Visits 7 (Week 4), 9 (Week 8), 11 (Week 12), 12 (Week 16), 13 (Week 20), 14 (Week 24), 15 (Week 28), 16 (Week 32), 17 (Week 36), 18 (Week 40), 19 (Week 44), 20 (Week 48), and 21 (Week 52) of the 52-week Safety Assessment Period; and at Visit 25 (Week 56) of the Efficacy Assessment Period.
Change from baseline in ferritin at Week 52 as compared to baseline (Visit 4). This variable will be analyzed using LOCF methodology. ANCOVA will be employed. The model will include treatment (fixed effect), and baseline (covariate). A sensitivity analysis will be performed using MMRM method.
• 1. Change in serum calcium concentration at Weeks 12, 24, 36, 48, and 52 as compared to baseline (Visit 4). This variable will be analyzed using LOCF methodology. ANCOVA will be employed. The model will include treatment (fixed effect), and baseline (covariate). • 2. Change in ferritin, and TSAT at Weeks 12, 24, 36 and 48 as compared to baseline (Visit 4). This variable will be analyzed using LOCF methodology. ANCOVA will be employed. The model will include treatment (fixed effect), and baseline (covariate). • 3. Change in serum iron and TIBC at Weeks 12, 24, 36, 48, and 52 as compared to baseline (Visit 4). This variable will be analyzed using LOCF methodology. ANCOVA will be employed. The model will include treatment (fixed effect), and baseline (covariate). • 4. Change in Ca x P product at Weeks 12, 24, 36, 48, and 52 as compared to baseline (Visit 4). This variable will be analyzed using LOCF methodology. ANCOVA will be employed. The model will include treatment (fixed effect), and baseline (covariate). • 5. Change in iPTH at Weeks 12, 36, 52, and 56 as compared to baseline (Visit 4). This variable will be analyzed using LOCF methodology. ANCOVA will be employed. The model will include treatment (fixed effect), and baseline (covariate). • 6. Change in serum […], vitamin A, vitamin B-12, vitamin E, vitamin K and folic acid at Weeks 12, 36, and 52 as compared to baseline (Visit 4). This variable will be analyzed using LOCF methodology. ANCOVA will be employed. The model will include treatment (fixed effect), and baseline (covariate). • 7. Change in serum bicarbonate concentration at Weeks 12, 36, and 52 as compared to baseline (Visit 4). This variable will be analyzed using LOCF methodology. ANCOVA will be employed. The model will include treatment (fixed effect), and baseline (covariate). • 8. Change in IV iron intake at Weeks 12, 24, 36, 48, and 52 as compared to baseline (Visit 4). This variable will be analyzed using LOCF methodology. ANCOVA will be employed. The model will include treatment (fixed effect), and baseline (covariate). • 9. Change in the use of EPO (ESA) administered at Weeks 12, 24, 36, 48, and 52 as compared to baseline (Visit 4). This variable will be analyzed using LOCF methodology. ANCOVA will be employed. The model will include treatment (fixed effect), and baseline (covariate). • 10. Change in the use of Vitamin D supplementation (and its analogs) and Sensipar (cinacalcet) at Weeks 12, 24, 36, 48, and 52 as compared to baseline (Visit 4). This variable will be analyzed using LOCF methodology. ANCOVA will be employed. The model will include treatment (fixed effect), and baseline (covariate). • 11. Change in LDL, HDL, and triglycerides at Weeks 12, 36, and 52 as compared to baseline (Visit 4). This variable will be analyzed using LOCF methodology. ANCOVA will be employed. The model will include treatment (fixed effect), and baseline (covariate).

[1] = Day 0 Baseline, Safety Assessment Period

## iron (+3), x (1, 2, 3-propanetricarboxylic acid, 2-hydroxy-), y (H2O) [KRX-0502]
ANCOVA, Table C
  Mean Ferritin, LS Mean Difference from Active Control Group at Week 52: 286 ng/mL
Baseline (Day 0), Table C
  Mean Ferritin: 595 ng/mL
[1]
  Ferritin, Mean: 595.00
  Ferritin, Median: 587.00
Table C
  Mean Ferritin, Change from Baseline at Week 52: 302 ng/mL
Week 12, ANCOVA
  Ferritin, LS Mean: 757.75
Week 12, LOCF, Table C
  Mean Ferritin: 751 ng/mL
Week 12
  Ferritin, Change from Baseline, Mean: 158.88
  Ferritin, Change from Baseline, Median: 123.00
  Ferritin, Mean: 751.19
  Ferritin, Median: 718.00
  Ferritin, Treatment Differences, LS Mean (KRX-0502) − LS Mean (control), (SE): 112.95 (29.36)
Week 24, ANCOVA
  Ferritin, LS Mean: 852.52
Week 24, LOCF, Table C
  Mean Ferritin: 847 ng/mL
Week 24
  Ferritin, Change from Baseline, Mean: 252.49
  Ferritin, Change from Baseline, Median: 220.00
  Ferritin, Mean: 846.90
  Ferritin, Median: 830.00
  Ferritin, Treatment Differences, LS Mean (KRX-0502) − LS Mean (control), (SE): 204.43 (32.84)
Week 36, ANCOVA
  Ferritin, LS Mean: 868.11
Week 36, LOCF, Table C
  Mean Ferritin: 863 ng/mL
Week 36
  Ferritin, Change from Baseline, Mean: 268.77
  Ferritin, Change from Baseline, Median: 223.00
  Ferritin, Mean: 863.18
  Ferritin, Median: 818.00
  Ferritin, Treatment Differences, LS Mean (KRX-0502) − LS Mean (control), (SE): 241.24 (38.27)
Week 48, ANCOVA
  Ferritin, LS Mean: 887.41
Week 48, LOCF, Table C
  Mean Ferritin: 882 ng/mL
Week 48
  Ferritin, Change from Baseline, Mean: 287.69
  Ferritin, Change from Baseline, Median: 233.00
  Ferritin, Mean: 882.10
  Ferritin, Median: 850.00
  Ferritin, Treatment Differences, LS Mean (KRX-0502) − LS Mean (control), (SE): 270.56 (39.85)
Week 52, ANCOVA
  Ferritin, LS Mean: 901.95
Week 52, LOCF, Table C
  Mean Ferritin: 897 ng/mL
Week 52
  Ferritin, Change from Baseline, Mean: 302.11
  Ferritin, Change from Baseline, Median: 224.00
  Ferritin, Mean: 897.12
  Ferritin, Median: 858.00
  Ferritin, Treatment Differences, LS Mean (KRX-0502) − LS Mean (control), (SE): 285.65 (42.76)
Week 52, Table C
  Mean Ferritin, % Change from Baseline: 50.8%
